US12030824B2 (priority 2016, dated 2024)
Entries after “also recorded” stand apart in the source; their conditions may differ.

How the values were obtained:
plant growth = assay: Applicant's observation of plant growth induction by 1-octen-3-ol; type: in vivo; details: very low concentrations
[1] = tested on: root knot nematode, Meloidgyne javanica; assay: Split-root greenhouse trial on tomato with root knot nematode (Nemlab); type: in vivo; details: for overall effectiveness in nematode control: split-root greenhouse trial; for Number of Eggs/Root System, Pot 1—nem. alone (of split root system) / Numbers of female nematodes/root, Pot 1—nem. alone (of split root system) / Galling Index, Pot 1—nem. alone (of split root system) / Number of Eggs/Root System, Pot 2—agent + nematode (of split root system) / Numbers of female nematodes/root, Pot 2—agent + nematode (of split root system) / Galling Index, Pot 2—agent + nematode (of split root system): tomato split root; for Number of Eggs/Root System, Pot 1—nem. alone (of split root system) / Numbers of female nematodes/root, Pot 1—nem. alone (of split root system): root half with M. javanica only; for Galling Index, Pot 1—nem. alone (of split root system): root half with M. javanica only (systemic), scale 0 no galls to 5 100% of roots with galls; for Number of Eggs/Root System, Pot 2—agent + nematode (of split root system) / Numbers of female nematodes/root, Pot 2—agent + nematode (of split root system) / Galling Index, Pot 2—agent + nematode (of split root system): root half with M. javanica plus agent; for Galling Index, Pot 2—agent + nematode (of split root system): scale 0 no galls to 5 100%
Procedure: Comprehensive evaluation of the strains in greenhouse trials. […] It is difficult to obtain statistically valid results directly on nematode control from natural infestations since the levels of nematodes differ widely on a microsite level. Therefore, controlled greenhouse tests were conducted with Nemlab, a company in South Africa who specializes in nematode control testing. This trial was designed to consider mechanisms as well as direct contact control. As noted earlier, induction of systemic resistance was considered highly desirable, and would be expected given the generalized mechanisms of action described in Example 3, FIG. 8. To assess this character, tomato plants were grown for 6 weeks and then the roots were split into two, and each half root was placed into a separate pot with a single shoot. Except for water controls, 500-1000 eggs of the root knot nematode, Meloidgyne javanica were placed into each root system, but only one side, the various treatments were placed the biocontrol agents at 10^8 cfu/g soil. So, one root system of each plant contained nematodes only while the other contained nematodes plus the treatments. The treatments are shown below; there were six replicates per treatment. […] The experiment was designed to evaluate the ability of each strain to directly control (pot 2) and to control at-a-distance, the nematodes. […] There were a number of evaluations made of the plants at the end of the experiment, and the most important are shown below in Table 4 ([…] Index). Root galling is an index of the formation of 'knots' on roots that give root knot nematode its name and is an index of the root damage. The galls are the areas where the nematode is infesting the root and laying its eggs. The scale=0, no galls, 1, visible galling, 2, 25% of roots with galls, 3, 50% of roots with galls, 4, 75%, and 5, 100%.

White flies = assay: Control of white flies on greenhouse tomatoes with OPB+microbial strains; type: in vivo, Bremia spp.; details: single spray
[2] = tested on: cabbage aphid Brevicoryne brassicae; assay: Control of aphids on cabbage, single spray; type: in vivo; details: white flies on tomato and cabbage aphids on cabbage
maize = assay: ABM trials and field testing of commercial products and strains on corn; type: in vivo
corn (Zea mays) = assay: Corn field trial ABM14 (1st field trial), seed treatments; type: in vivo; details: both ABM14 and ABM15 studies
[3] = tested on: plant parasitic nematodes; assay: Field trials with sunflowers in South Africa, root galling; type: in vivo; details: sunflower, naturally infested field, FIG. 12
Procedure: Field trials with sunflowers in the field in South Africa. Trials were conducted in the Republic of South Africa. Sunflower seeds were treated with various microorganisms and planted into soil infested with plant parasitic nematodes. After the plants were mature, roots were harvested and rated for root galling caused by the nematodes. The variability was quite large in this naturally infested field.

corn = assay: Corn trials in the greenhouse, seed treatment; type: in vivo; details: FIG. 2
Excerpt: Corn trials in the greenhouse. […] The growth differences are clearly evident.

wheat = assay: Greenhouse wheat seedlings, foliar spray; type: in vivo; details: foliar spray vs water only; FIG. 3
Excerpt: Trichoderma strain K5 increases growth in greenhouse grown wheat when applied as a foliar treatment. […] Control plants were sprayed with water only.

soybean = assay: Greenhouse soybean in sand tubes, seed treatment; type: in vivo; details: stem length, Spad, root weight, root volume; FIG. 4; significant at alpha=0.05 or 0.01
Procedure: Trichoderma strain K5 increases growth in soybean in the greenhouse when applied as a seed treatment. Soybean seeds were treated with either T. virens NRRL B-5025 strain or left untreated with no other microbial or chemical treatments being applied. These were planted into sand tubes and growth data was collected as the seeds emerged and the seedlings grew. […] All of the differences shown in FIG. 4 are significant at alpha=0.05 or 0.01.

nematodes = assay: Field trial in Iowa in a field heavily infested with nematodes: yields; details: Iowa nematode-infested field

Compound | induction of plant growth (plant growth) | overall effectiveness in nematode control [1] | Number of Eggs/Root System, Pot 1—nem. alone (of split root system) [1] | Numbers of female nematodes/root, Pot 1—nem. alone (of split root system) [1] | Galling Index, Pot 1—nem. alone (of split root system) [1] | Number of Eggs/Root System, Pot 2—agent + nematode (of split root system) [1] | Numbers of female nematodes/root, Pot 2—agent + nematode (of split root system) [1] | Galling Index, Pot 2—agent + nematode (of split root system) [1] | duration of white fly control (White flies) | conclusion from the combined two experiments [2] | impact on corn in field testing (maize) | grain yields (corn (Zea mays)) | root galling index [3] | growth of corn plants (corn) | growth of wheat seedlings (wheat) | soybean seedling growth (soybean) | yield performance (nematodes)
C=CC(O)CCCCC (stereo not shown) [1-octen-3-ol] | potent inducer of enhanced plant growth |  |  |  |  |  |  |  |  |  |  |  |  |  |  |  | 
Bacillus amyloliquifaciens [Bacillus AS2] |  | nearly as good an effect | 2481 | 14.67 | 2.3 | 970 | 8.16 | 2.0 | effects continued at least three weeks | highly effective |  |  |  |  |  |  | 
T. virens strain ATCC 20906 [Trichoderma K1] |  |  | 45631 | 25.17 | 3.33 | 48765 | 35.7 | 3.17 | effects continued at least three weeks | highly effective | negative impact on corn |  |  |  |  |  | 
Trichoderma gamsii (NRRL B-50520) [Trichoderma K5] |  | most effective treatment | 1298 | 4.0 | 1.3 | 493 | 8.5 | 2.17 | effects continued at least three weeks | highly effective |  | largest grain yields | lowest numerical galling index of the biological treatments | improved growth and development | clearly larger and more vigorous; also recorded: significant growth increase | significantly increase soybean seedling growth | excellent performance
